# Source: publication PMC8348983 (International Journal of Molecular Sciences, 2021)
# Entries after “also recorded” stand apart in the source; their conditions may differ. Read-outs that look alike come from different tables or passages of the source.
# Experiments:
# [1] = target: T1, human recombinant AChE (Homo sapiens, UniProt P22303); test: biochemical; type: biochemical; settings: for IC50: mean ± SEM of three independent measurements, each in triplicate, read-out: IC50, hAChE ± SEM; for inhibition at 100 µM: tested at 100 µM compound concentration, read-out: %Inhibition hAChE ± SEM
# T1 sequence (P22303 32-614): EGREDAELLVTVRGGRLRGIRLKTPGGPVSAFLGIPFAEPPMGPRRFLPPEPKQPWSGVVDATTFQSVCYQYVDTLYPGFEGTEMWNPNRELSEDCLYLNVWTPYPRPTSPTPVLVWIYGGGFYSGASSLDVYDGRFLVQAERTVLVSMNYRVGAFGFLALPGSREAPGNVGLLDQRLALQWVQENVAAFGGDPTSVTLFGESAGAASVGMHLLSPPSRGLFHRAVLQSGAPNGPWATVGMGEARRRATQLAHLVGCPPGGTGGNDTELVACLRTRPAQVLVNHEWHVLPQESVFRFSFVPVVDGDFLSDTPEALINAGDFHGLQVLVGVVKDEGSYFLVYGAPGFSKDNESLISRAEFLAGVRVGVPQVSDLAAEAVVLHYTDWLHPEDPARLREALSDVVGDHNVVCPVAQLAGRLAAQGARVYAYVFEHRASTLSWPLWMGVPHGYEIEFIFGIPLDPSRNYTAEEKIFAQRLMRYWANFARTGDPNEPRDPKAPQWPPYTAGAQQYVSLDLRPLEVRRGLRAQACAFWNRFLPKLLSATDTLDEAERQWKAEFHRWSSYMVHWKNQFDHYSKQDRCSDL
# [2] = target: T2, human plasma BChE (Homo sapiens, UniProt P06276); test: biochemical; type: biochemical; settings: for IC50: mean ± SEM of three independent measurements, each in triplicate, read-out: IC50, hBuChE ± SEM; for SI for hBuChE: ratio hAChE IC50/hBuChE IC50; for inhibition at 100 µM: tested at 100 µM compound concentration, read-out: % Inhibition hBuChE ± SEM
# T2 construct: was used as a source of BChE and was prepared from heparinized human blood; from tissue; host or cells: human plasma from heparinized human blood
# T2 sequence (P06276 29-602): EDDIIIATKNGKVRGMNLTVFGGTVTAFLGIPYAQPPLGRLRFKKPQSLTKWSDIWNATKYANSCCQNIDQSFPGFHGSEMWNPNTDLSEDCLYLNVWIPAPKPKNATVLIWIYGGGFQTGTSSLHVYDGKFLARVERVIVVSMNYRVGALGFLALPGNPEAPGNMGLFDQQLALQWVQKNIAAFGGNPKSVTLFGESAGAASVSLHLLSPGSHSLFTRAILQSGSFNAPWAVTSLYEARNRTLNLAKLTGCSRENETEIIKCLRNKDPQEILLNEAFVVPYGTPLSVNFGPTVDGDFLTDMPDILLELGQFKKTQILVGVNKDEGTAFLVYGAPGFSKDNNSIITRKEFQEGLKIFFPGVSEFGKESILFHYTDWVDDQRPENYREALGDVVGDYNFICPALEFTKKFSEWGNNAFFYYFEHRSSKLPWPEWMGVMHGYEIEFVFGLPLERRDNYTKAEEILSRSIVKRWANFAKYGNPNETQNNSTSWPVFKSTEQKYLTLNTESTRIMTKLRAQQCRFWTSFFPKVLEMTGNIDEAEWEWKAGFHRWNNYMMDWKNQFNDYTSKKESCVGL
# [3] = target: POP (prolyloligopeptidase) (Homo sapiens, UniProt P48147); test: POP inhibition assay; type: biochemical; settings: bounds marked f: highest tested concentration due to low solubility in buffer; read-out: IC50, POP ± SEM
# Sequence of POP (prolyloligopeptidase) (P48147 whole entry): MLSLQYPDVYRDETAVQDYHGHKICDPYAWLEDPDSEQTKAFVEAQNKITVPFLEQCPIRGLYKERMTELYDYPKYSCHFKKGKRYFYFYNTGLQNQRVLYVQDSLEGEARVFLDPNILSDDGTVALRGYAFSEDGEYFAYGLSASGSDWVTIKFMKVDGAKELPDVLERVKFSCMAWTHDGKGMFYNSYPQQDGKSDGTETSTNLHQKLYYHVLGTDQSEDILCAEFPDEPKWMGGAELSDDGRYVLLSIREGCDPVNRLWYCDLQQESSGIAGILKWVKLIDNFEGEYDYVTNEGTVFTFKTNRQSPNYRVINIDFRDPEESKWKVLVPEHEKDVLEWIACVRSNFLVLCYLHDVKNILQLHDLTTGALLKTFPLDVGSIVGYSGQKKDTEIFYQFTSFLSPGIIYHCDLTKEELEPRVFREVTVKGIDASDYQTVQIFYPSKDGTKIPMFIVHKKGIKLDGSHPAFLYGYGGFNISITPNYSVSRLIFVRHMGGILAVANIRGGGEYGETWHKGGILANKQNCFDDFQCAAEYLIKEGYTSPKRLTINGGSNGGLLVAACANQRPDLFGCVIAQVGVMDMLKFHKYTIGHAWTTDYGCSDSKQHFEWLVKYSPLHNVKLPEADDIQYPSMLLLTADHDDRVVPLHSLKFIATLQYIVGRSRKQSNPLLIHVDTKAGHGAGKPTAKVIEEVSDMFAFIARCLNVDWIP
# Experimental: The previously applied procedure was used. Detailed description of the assay can be found in Supplementary Materials.
# POP (EC 3.4.21.26) was dissolved in phosphate-buffered saline (PBS; 0.01 M Na/K phosphate buffer, […]
# The assay was performed in standard polystyrene 96-well microplates with a flat and clear bottom.
# Stock solutions of tested compounds were prepared in DMSO (10 mM). Dilutions (10−3 to 10−7 M) were prepared from the stock solution with deionized H2O; the control was performed with the same DMSO concentration. POP substrate, (Z)-Gly-Pro-p-nitroanilide, was dissolved in 50% 1,4-dioxane (5 mM). For each reaction, PBS (170 μL), tested compound (5 μL), and POP (5 μL) were incubated for 5 min at 37 °C. Then, substrate (20 μL) was added, and the microplate was incubated for 30 min at 37 °C. The formation of p-nitroanilide, directly proportional to the POP activity, was measured […]
# Synergy 2, BioTek Instruments, Winooski, VT). The inhibition potency of tested compounds was calculated by nonlinear regression analysis and was expressed as an IC50 value (concentration of inhibitor which causes 50% POP inhibition). […]
# [4] = target: T1, human recombinant AChE; design: method as in PMID 32455879; settings: template alkaloids, Figure 1; read-out: IC50,hAChE; cited from earlier work
SMILES,IC50 [1],inhibition at 100 µM [1],IC50 [2],SI for hBuChE [2],inhibition at 100 µM [2],IC50 [3],hAChE inhibition potency (in words) ([1]; screening at 100 µM),hBuChE inhibition potency (in words) ([2]; screening at 100 µM),IC50 [4]
"C=CCN(CCc1ccccc1)Cc1ccc(OC)c(OCC)c1 [Compound 19, N-allyl-N-(3-ethoxy-4-methoxybenzyl)-2-phenylethan-1-amine]",> 100 µM,5.9 ± 2.1%,4.63 ± 0.48 µM,>22,80.2 ± 0.2%,,,,
"C=CCN(CCc1ccc(O)cc1)Cc1ccc(OC)c(OCc2ccccc2)c1 [Compound 4, N-allyl-N-(3-benzyloxy-4-methoxybenzyl)-2-(4-hydroxyphenyl)ethan-1-amine]",> 100 µM,45.2 ± 2.4%,0.25 ± 0.01 µM,>394,97.9 ± 0.6%,> 79 µM,,,
"COc1ccc(CNCCc2ccc(O)cc2)cc1OCc1ccccc1 [Compound 2, N-(3-benzyloxy-4-methoxybenzyl)-2-(4-hydroxyphenyl)ethan-1-amine]",> 100 µM,35.8 ± 1.2%,0.29 ± 0.02 µM,>348,97.7 ± 0.5%,> 79 µM,,,
"C=CCOc1ccc(CCN(CC=C)Cc2ccc(OC)c(OCC)c2)cc1 [Compound 17, N-allyl-N-(3-ethoxy-4-methoxybenzyl)-2-(4-allyloxyphenyl)ethan-1-amine]",> 100 µM,29.3 ± 3.9%,9.89 ± 1.37 µM,,77 ± 1%,,,,
"C=CCN(CCc1ccccc1)Cc1ccc(OC)c(OCc2ccccc2)c1 [Compound 10, N-allyl-N-(3-benzyloxy-4-methoxybenzyl)-2-phenylethan-1-amine]",21.5 µM,72.4 ± 1.1%,1.17 ± 0.04 µM,18,92 ± 2.4%,,,,
"COc1ccc(CNCCc2ccccc2)cc1OCc1ccccc1 [Compound 8, N-(3-benzyloxy-4-methoxybenzyl)-2-phenylethan-1-amine]",> 100 µM,12.6 ± 0.5%,1.1 ± 0.05 µM,>90,96.6 ± 0.4%,,,,
"C=CCN(CCc1ccc(OC)cc1)Cc1ccc(OC)c(OCc2ccccc2)c1 [Compound 14, N-allyl-N-(3-benzyloxy-4-methoxybenzyl)-2-(4-methoxyphenyl)ethan-1-amine]",37.7 µM,60.9 ± 0.4%,0.38 ± 0.01 µM,98,95.8 ± 0.9%,,,,
"COc1ccc(CCNCc2ccc(OC)c(OCc3ccccc3)c2)cc1 [Compound 12, N-(3-benzyloxy-4-methoxybenzyl)-2-(4-methoxyphenyl)ethan-1-amine]",> 100 µM,0%,1.12 ± 0.11 µM,>89,94.6 ± 0.6%,,,,
"CCOc1cc(CNCCc2ccccc2)ccc1OC [Compound 18, N-(3-ethoxy-4-methoxybenzyl)-2-phenylethan-1-amine]",> 100 µM,0%,41.1 ± 2.6 µM,>2,60 ± 1.6%,,,,
"CCOc1cc(CN(CCc2ccccc2)Cc2ccccc2)ccc1OC [Compound 20, N-benzyl-N-(3-ethoxy-4-methoxybenzyl)-2-phenylethan-1-amine]",> 100 µM,49.5 ± 0.8%,0.69 ± 0.03 µM,>145,82.5 ± 1%,,,,
"C=CCOc1ccc(CCN(CC=C)Cc2ccc(OCc3ccccc3)c(OC)c2)cc1 [Compound 5, N-allyl-N-(4-benzyloxy-3-methoxybenzyl)-2-(4-allyloxyphenyl)ethan-1-amine]",> 100 µM,3.4 ± 0.5%,> 100 µM,,38.9 ± 0.9%,,no inhibition potency,no inhibition potency; also recorded: inactive,
COc1cc(CN(C)CCc2ccc(O)cc2)c(-c2cccc3c2N(C)CC3)cc1OC [carltonine A],,,,,,,,,> 100 µM
"COc1cc(CNCCc2ccccc2)ccc1OCc1ccccc1 [Compound 7, N-(4-benzyloxy-3-methoxybenzyl)-2-phenylethan-1-amine]",> 100 µM,23.4 ± 2.5%,1.28 ± 0.05 µM,>78,94.5 ± 0.9%,,,,
"C=CCN(CCc1ccc(O)cc1)Cc1ccc(OCc2ccccc2)c(OC)c1 [Compound 3, N-allyl-N-(4-benzyloxy-3-methoxybenzyl)-2-(4-hydroxyphenyl)ethan-1-amine]",> 100 µM,20.8 ± 0.9%,0.61 ± 0.04 µM,>163,96.8 ± 1.1%,> 200 µM,,,
"CCOc1cc(CNCCc2ccc(O)cc2)ccc1OC [Compound 15, N-(3-ethoxy-4-methoxybenzyl)-2-(4-hydroxyphenyl)ethan-1-amine]",> 100 µM,25.8 ± 1.3%,15.1 ± 2.34 µM,>6,75.3 ± 0.6%,,,,
"C=CCN(CCc1ccc(O)cc1)Cc1ccc(OC)c(OCC)c1 [Compound 16, N-allyl-N-(3-ethoxy-4-methoxybenzyl)-2-(4-hydroxyphenyl)ethan-1-amine]",> 100 µM,28.3 ± 1.1%,1.21 ± 0.08 µM,>82,91.7 ± 0.4%,,,,
"COc1ccc(CCNCc2ccc(OCc3ccccc3)c(OC)c2)cc1 [Compound 11, {[4-(benzyloxy)-3-methoxyphenyl]methyl}[2-(4-methoxyphenyl)ethyl]amine]",> 100 µM,27.9 ± 0.7%,2.39 ± 0.27 µM,>41,93.5 ± 0.3%,,,,
CN(CCc1ccc(O)cc1)Cc1cc2c(cc1-c1cccc3c1N(C)CC3)OCO2 [carltonine B],,,,,,,,,> 100 µM
"COc1cc(CNCCc2ccc(O)cc2)ccc1OCc1ccccc1 [Compound 1, N-(4-benzyloxy-3-methoxybenzyl)-2-(4-hydroxyphenyl)ethan-1-amine]",> 100 µM,30.4 ± 2.1%,0.36 ± 0.03 µM,>277,98.7 ± 0.3%,186 ± 14 µM,,,
"C=CCN(CCc1ccccc1)Cc1ccc(OCc2ccccc2)c(OC)c1 [Compound 9, N-allyl-N-(4-benzyloxy-3-methoxybenzyl)-2-phenylethan-1-amine]",> 100 µM,18.8 ± 1.9%,5.19 ± 0.28 µM,>19,74.9 ± 2.4%,,,,
"C=CCN(CCc1ccc(OC)cc1)Cc1ccc(OCc2ccccc2)c(OC)c1 [Compound 13, N-allyl-N-(4-benzyloxy-3-methoxybenzyl)-2-(4-methoxyphenyl)ethan-1-amine]",> 100 µM,32.7 ± 1.6%,2.72 ± 0.5 µM,>37,90.9 ± 1.5%,,,,
